Experimental data from PMC5843355, “Evaluation of the Trypanosoma brucei 6-oxopurine salvage pathway as a potential target for drug discovery” (PLoS Neglected Tropical Diseases, 2018).
Several values for one entry are separate records, joined by “and”; a condition that tells them apart may be missing. Equal values may be shown once. Read-outs that look alike come from different tables or passages of the source.

Key:
HGPRT-II [1] = molecular target: T1, HGPRT-II (Trypanosoma brucei brucei, UniProt Q38C93); experiment: Inhibition studies, Ki for recombinant HGPRT-II (spectrophotometric assay); type: biochemical
Method: (§1) The concentration of enzyme in the assay (varied from 75–200 μg/ml for the two enzymes) and the concentration of PRib-PP was kept at 1 mM. The reaction was carried out using a 1.0 cm path length with a UV Visible spectrometer 1601 (Shimadzu) in the reaction buffer (0.1 M Tris, pH 8.4; 0.11 M MgCl2; at 25°C).
(§2) The concentrations of inhibitors in the assay ranged from 1 nM to 100 μM, depending on the steady-state kinetics of the respective enzyme at that concentration of inhibitor. The reaction was preceded by 1 minute incubation of the respective enzyme with the given inhibitor. The Ki values were calculated using non-linear regression in GraphPad Prism5.

HGXPRT [2] = molecular target: T2, HGXPRT (Trypanosoma brucei brucei, UniProt Q38CA1); experiment: Inhibition studies, Ki for recombinant HGXPRT (spectrophotometric assay); type: biochemical; settings: 0.1 M Tris pH 8.4, 0.11 M MgCl2, 25°C, parent ANP
Method: as §1, §2

HGPRT-I [3] = molecular target: T3, HGPRT-I (Trypanosoma brucei brucei, UniProt Q07010); experiment: Inhibition studies, Ki for recombinant HGPRT-I (spectrophotometric assay); type: biochemical; settings: 0.1 M Tris pH 8.4, 0.11 M MgCl2, 25°C, parent ANP
T3 construct: 6x His-tag (N); AcTEV cleavage site (N); made in house; host or cells: E. coli One Shot BL21(DE3)
Method: as §1, §2

HGPRT-I [4] = molecular target: T3, HGPRT-I; experiment: Steady-state kinetic constants of 6-oxopurine bases for HGPRT-I; type: biochemical; settings: PRib-PP 1 mM, pH 8.4, 25°C
Method: as §1

HGPRT-II [5] = molecular target: T1, HGPRT-II; experiment: Steady-state kinetic constants of 6-oxopurine bases for HGPRT-II; type: biochemical; settings: PRib-PP 1 mM, pH 8.4, 25°C
Method: as §1

HGXPRT [6] = molecular target: T2, HGXPRT; experiment: Steady-state kinetic constants of 6-oxopurine bases for HGXPRT; settings: PRib-PP 1 mM, pH 8.4, 25°C
Method: as §1

[7] = 0.1 M Tris pH 8.4, 0.11 M MgCl2, 25°C, parent ANP

T1 sequence (Q38C93 entry or part of it): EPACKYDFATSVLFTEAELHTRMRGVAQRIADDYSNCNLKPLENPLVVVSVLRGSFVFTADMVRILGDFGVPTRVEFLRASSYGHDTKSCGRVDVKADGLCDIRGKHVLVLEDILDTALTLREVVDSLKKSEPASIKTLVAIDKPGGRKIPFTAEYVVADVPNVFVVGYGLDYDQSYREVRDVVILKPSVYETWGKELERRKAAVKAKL
T3 sequence (Q07010 2-210 limits assumed): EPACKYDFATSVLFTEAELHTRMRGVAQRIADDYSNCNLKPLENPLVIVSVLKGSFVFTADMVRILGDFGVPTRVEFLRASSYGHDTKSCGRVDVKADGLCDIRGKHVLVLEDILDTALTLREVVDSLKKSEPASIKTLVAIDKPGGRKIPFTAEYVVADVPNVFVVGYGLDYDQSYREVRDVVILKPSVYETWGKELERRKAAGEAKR
T2 sequence (Q38CA1 entry or part of it): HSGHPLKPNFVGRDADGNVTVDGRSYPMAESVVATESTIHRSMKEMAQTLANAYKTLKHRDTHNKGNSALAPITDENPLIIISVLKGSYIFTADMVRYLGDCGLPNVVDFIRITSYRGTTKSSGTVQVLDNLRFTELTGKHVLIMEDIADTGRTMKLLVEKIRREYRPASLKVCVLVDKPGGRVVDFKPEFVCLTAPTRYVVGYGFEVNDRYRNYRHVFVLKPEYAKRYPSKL

Ki (HGPRT-II [1]; [7])	Ki (HGXPRT [2]; read-out: HGXPRT Ki)	Ki (HGPRT-I [3]; read-out: HGPRT-I Ki)	SMILES	also measured
250 ± 20 nM	6540 nM	110 nM	Nc1nc2c(ncn2CCN(CCOCP(=O)(O)O)CCP(=O)(O)O)c(=O)[nH]1 [compound 2]	
			O=c1[nH]c(=O)c2nc[nH]c2[nH]1 [Xanthine]	Km (HGPRT-I [4]): No activity detected; kcat (HGPRT-I [4]): No activity detected; Km (HGPRT-I [4]; listed as xanthine): no affinity; kcat (HGPRT-I [4]; listed as xanthine): no activity; Km (HGPRT-II [5]): No activity detected; kcat (HGPRT-II [5]): No activity detected; kcat (HGPRT-II [5]; listed as xanthine): no activity
			Nc1nc2c(ncn2CC(COCP(=O)(O)O)COCP(=O)(O)O)c(=O)[nH]1 [compound 6]	Ki (HGPRT-II [1]): 200 nM and < 1000 nM; Ki (HGXPRT [2]; HGXPRT Ki): < 1000 nM; Ki (HGPRT-I [3]; HGPRT-I Ki): < 1000 nM
310 ± 60 nM		290 ± 20 nM	Nc1nc2c(ncn2CCN(CCN(CCP(=O)(O)O)CCP(=O)(O)O)CCP(=O)(O)O)c(=O)[nH]1 [compound 4]	Ki (HGXPRT [2]; HGXPRT Ki): 1860 ± 290 nM
1880 ± 170 nM	770 ± 60 nM	890 ± 70 nM	Nc1nc2c(ncn2CC(COCCP(=O)(O)O)OCCP(=O)(O)O)c(=O)[nH]1 (stereo not drawn) [compound 7]	
			Nc1nc2nc[nH]c2c(=O)[nH]1 [Guanine]	kcat (HGPRT-II [5]): 0.05 s⁻¹; kcat (HGXPRT [6]): 1.36 s⁻¹
7020 ± 1620 nM	10500 ± 1320 nM	2470 ± 440 nM	O=c1[nH]cnc2c1ncn2CCN(CCN(CCP(=O)(O)O)CCP(=O)(O)O)CCP(=O)(O)O [compound 5]	
14200 ± 610 nM	19900 ± 1750 nM	13500 ± 830 nM	N#CCCN(CCn1cnc2c(=O)[nH]c(N)nc21)CCP(=O)(O)O [compound 1]	
60 nM and < 1000 nM	380 nM and < 1000 nM	120 nM and < 1000 nM	O=c1[nH]cnc2c1ncn2CCN(CCOCP(=O)(O)O)CCP(=O)(O)O [compound 3]	
